Results as given in ChEMBL document CHEMBL3804790, “Fragment-Based Approaches to the Development of Mycobacterium tuberculosis CYP121 Inhibitors” (J Med Chem, 2016).

Tests used:
Mycocyclosin synthase [1] = target: T1, Mycocyclosin synthase (Mycobacterium tuberculosis, UniProt P9WPP7); parameters: species or system C41(DE3)
T1 sequence (P9WPP7 whole entry): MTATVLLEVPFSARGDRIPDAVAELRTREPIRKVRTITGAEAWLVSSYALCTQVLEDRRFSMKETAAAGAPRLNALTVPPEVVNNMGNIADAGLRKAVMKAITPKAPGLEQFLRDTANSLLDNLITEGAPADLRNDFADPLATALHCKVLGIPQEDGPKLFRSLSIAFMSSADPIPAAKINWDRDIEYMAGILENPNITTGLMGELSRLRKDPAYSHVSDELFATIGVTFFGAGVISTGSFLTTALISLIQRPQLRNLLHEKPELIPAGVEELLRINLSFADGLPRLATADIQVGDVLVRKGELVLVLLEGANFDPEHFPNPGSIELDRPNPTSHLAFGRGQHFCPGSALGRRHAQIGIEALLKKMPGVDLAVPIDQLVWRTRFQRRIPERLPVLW

Mycocyclosin synthase [2] = target: T1, Mycocyclosin synthase; parameters: species or system C41(DE3); remark: listed apart in the source
Cytochrome P450 3A4 = Cytochrome P450 3A4 (Homo sapiens, UniProt P08684)
Description: Inhibition of CYP3A4 in human liver microsomes using midazolam as substrate by LC-MS/MS analysis

[3] = test system: CYP1A (relative to Mycobacterium tuberculosis CYP121); assay: in vitro; conditions: human, c41(de3)
Description: Selectivity ratio of IC50 for human CYP1A to Kd for Mycobacterium tuberculosis His6-tagged CYP121 expressed in Escherichia coli C41 (DE3) cells

Cytochrome P450 2C9 = Cytochrome P450 2C9 (Homo sapiens, UniProt P11712); assay: Inhibition of CYP2C9 in human liver microsomes using tolbutamide as substrate by LC-MS/MS analysis; assay type: ADME
[4] = Inhibition of CYP1A1/CYP1A2 in human liver microsomes using ethoxyresorufin as substrate by fluorescence analysis; assay type: ADME
[5] = test system: Mycobacterium tuberculosis; assay: Antimycobacterial activity against Mycobacterium tuberculosis H37Rv assessed as bacterial growth inhibition after 2 weeks; assay type: functional; conditions: 336 h
Cytochrome P450 2C19 = Cytochrome P450 2C19 (Homo sapiens, UniProt P33261); assay: Inhibition of CYP2C19 in human liver microsomes using mephenytoin as substrate by LC-MS/MS analysis; assay type: ADME
Cytochrome P450 2D6 = Cytochrome P450 2D6 (Homo sapiens, UniProt P10635); assay: Inhibition of CYP2D6 in human liver microsomes using dextromethorphan as substrate by LC-MS/MS analysis; assay type: ADME
[6] = target: T2, Steroid C26-monooxygenase (Mycobacterium tuberculosis, UniProt P9WPP1); parameters: species or system C41(DE3)
T2 sequence (P9WPP1 whole entry): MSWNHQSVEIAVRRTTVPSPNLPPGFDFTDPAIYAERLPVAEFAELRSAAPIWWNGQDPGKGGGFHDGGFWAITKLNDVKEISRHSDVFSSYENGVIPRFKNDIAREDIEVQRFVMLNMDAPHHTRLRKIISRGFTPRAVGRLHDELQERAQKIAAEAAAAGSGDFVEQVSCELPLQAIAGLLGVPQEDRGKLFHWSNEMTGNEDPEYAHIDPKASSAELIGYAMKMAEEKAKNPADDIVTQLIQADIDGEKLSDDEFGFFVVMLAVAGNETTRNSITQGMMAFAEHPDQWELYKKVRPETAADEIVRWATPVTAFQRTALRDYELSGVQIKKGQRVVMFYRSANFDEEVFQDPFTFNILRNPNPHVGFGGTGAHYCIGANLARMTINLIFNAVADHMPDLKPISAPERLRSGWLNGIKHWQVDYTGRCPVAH

[7] = target: T3, Methyl-branched lipid omega-hydroxylase (Mycobacterium tuberculosis (strain ATCC 25618 / H37Rv), UniProt P9WPP3); parameters: species or system C41(DE3)
T3 sequence (P9WPP3 whole entry): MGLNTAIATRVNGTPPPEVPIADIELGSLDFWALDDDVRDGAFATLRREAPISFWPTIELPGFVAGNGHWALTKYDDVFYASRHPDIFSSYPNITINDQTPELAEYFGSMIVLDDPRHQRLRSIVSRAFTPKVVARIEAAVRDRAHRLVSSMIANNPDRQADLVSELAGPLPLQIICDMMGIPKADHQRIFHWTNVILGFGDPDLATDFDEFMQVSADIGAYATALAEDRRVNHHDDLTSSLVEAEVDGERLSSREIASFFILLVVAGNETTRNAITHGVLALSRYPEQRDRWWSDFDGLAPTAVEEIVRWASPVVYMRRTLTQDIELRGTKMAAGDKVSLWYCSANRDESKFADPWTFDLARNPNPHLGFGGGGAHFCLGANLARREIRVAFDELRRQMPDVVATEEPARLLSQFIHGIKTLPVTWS

Sequence of Cytochrome P450 3A4 (P08684 whole entry): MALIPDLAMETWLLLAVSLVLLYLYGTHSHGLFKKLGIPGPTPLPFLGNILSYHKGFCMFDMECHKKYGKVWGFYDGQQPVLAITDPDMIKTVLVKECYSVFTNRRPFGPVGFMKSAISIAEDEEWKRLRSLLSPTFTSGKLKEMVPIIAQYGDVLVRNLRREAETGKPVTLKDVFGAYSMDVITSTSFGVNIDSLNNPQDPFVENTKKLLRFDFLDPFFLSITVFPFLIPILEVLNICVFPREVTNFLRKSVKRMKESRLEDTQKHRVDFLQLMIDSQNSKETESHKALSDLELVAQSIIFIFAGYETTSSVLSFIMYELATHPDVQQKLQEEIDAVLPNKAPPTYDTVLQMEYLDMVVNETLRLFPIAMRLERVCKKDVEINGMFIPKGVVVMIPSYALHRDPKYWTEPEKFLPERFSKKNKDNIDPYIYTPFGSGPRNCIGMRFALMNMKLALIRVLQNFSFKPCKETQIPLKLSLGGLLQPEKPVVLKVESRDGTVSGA
Sequence of Cytochrome P450 2D6 (P10635 whole entry): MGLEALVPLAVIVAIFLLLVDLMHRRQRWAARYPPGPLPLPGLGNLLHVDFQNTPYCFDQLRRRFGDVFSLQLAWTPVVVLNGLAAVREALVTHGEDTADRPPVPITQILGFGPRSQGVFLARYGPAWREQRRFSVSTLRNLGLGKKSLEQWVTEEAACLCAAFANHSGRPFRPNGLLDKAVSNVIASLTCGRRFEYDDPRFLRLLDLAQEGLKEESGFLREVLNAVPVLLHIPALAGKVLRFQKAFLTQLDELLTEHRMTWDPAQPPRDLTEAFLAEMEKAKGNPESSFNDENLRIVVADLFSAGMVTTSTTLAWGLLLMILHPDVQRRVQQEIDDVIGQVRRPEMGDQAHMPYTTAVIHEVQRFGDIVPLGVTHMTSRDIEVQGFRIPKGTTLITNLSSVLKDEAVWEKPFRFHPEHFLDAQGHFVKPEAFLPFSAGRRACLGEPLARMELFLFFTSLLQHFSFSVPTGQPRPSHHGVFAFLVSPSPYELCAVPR
Sequence of Cytochrome P450 2C19 (P33261 whole entry): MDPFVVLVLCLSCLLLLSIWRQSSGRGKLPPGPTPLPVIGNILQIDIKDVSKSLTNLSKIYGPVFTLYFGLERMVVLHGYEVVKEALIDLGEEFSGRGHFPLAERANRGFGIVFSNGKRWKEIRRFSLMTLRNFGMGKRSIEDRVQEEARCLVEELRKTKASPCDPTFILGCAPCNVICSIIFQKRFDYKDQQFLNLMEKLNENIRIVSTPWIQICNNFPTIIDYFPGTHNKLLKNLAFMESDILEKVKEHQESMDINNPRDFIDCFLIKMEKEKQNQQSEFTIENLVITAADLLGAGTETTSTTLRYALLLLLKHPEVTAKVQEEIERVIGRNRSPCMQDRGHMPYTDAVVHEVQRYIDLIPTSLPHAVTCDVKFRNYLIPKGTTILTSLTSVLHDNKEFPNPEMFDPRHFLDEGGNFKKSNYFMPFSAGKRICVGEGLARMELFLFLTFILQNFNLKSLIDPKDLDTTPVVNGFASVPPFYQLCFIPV
Sequence of Cytochrome P450 2C9 (P11712 whole entry): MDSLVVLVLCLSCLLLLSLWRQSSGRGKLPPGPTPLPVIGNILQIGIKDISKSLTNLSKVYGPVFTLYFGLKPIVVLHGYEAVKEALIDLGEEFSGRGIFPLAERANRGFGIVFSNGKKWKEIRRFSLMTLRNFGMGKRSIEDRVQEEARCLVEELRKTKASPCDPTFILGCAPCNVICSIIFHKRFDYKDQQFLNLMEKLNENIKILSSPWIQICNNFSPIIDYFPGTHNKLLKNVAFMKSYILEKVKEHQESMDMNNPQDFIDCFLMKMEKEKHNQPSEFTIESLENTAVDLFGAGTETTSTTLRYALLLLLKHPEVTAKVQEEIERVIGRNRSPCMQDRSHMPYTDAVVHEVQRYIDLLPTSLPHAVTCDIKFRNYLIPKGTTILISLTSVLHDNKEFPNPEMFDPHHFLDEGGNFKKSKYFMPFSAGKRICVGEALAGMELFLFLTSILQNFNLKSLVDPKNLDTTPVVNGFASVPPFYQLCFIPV

O=C(Nc1[nH]nc(-c2ccc(O)cc2)c1-c1ccc(O)cc1)c1ccncc1
Kd (Mycocyclosin synthase [1]; read-out: Kd): 600 µM

Nc1[nH]nc(-c2cccc(O)c2)c1-c1ccc(O)cc1
Kd (Mycocyclosin synthase [1]; read-out: Kd): 60 µM

Oc1ccc(-c2n[nH]c(NCc3ccsc3)c2-c2ccc(O)cc2)cc1
Kd (Mycocyclosin synthase [1]; read-out: Kd): 18 µM

Oc1ccc(-c2n[nH]c(NCc3ccncc3)c2-c2ccc(O)cc2)cc1
Kd (Mycocyclosin synthase [1]; read-out: Kd): 240 µM

Nc1[nH]nc(-c2cccc(F)c2)c1-c1ccc(O)cc1
Kd (Mycocyclosin synthase [1]; read-out: Kd): 252 µM

Nc1cccc(-c2cc(-c3cn[nH]c3N)ccc2OCc2ccccc2)c1
Kd (Mycocyclosin synthase [1]; read-out: Kd): 28 µM

Nc1ccc(-c2cccc(-c3cn[nH]c3N)c2)cc1
Kd (Mycocyclosin synthase [2]): 230 µM

Nc1cccc(-c2cccc(-c3cn[nH]c3N)c2)c1
IC50 (Cytochrome P450 3A4): > 25 µM | selectivity ratio [3]: 0.09 | IC50 (Cytochrome P450 2C9): > 25 µM | IC50 [4]: 1.22 µM | Kd (Mycocyclosin synthase [1]; read-out: Kd): 140 µM | MIC90 [5]: ≥ 50 µM | Kd (Mycocyclosin synthase [2]): 14 µM | IC50 (Cytochrome P450 2C19): > 25 µM | IC50 (Cytochrome P450 2D6): > 25 µM

COc1ccc(-c2cn[nH]c2N)cc1-c1cccc(N)c1
Kd (Mycocyclosin synthase [1]; read-out: Kd): 68 µM

O=C(Nc1[nH]nc(-c2ccc(O)cc2)c1-c1ccc(O)cc1)c1ccc(O)cc1
Kd (Mycocyclosin synthase [1]; read-out: Kd): 78 µM

Oc1ccc(Nc2cc(-c3ccc(O)cc3)[nH]n2)cc1
Kd (Mycocyclosin synthase [1]; read-out: Kd): 10.6 µM

Oc1ccc(-c2n[nH]c(NCc3c[nH]cn3)c2-c2ccc(O)cc2)cc1
Kd (Mycocyclosin synthase [1]; read-out: Kd): 275 µM

Nc1[nH]nc(-c2ccc(O)cc2O)c1-c1ccc(O)cc1
Kd (Mycocyclosin synthase [1]; read-out: Kd): 181 µM

Oc1ccc(-c2n[nH]c(NCc3ccc4[nH]ccc4c3)c2-c2ccc(O)cc2)cc1
Kd (Mycocyclosin synthase [1]; read-out: Kd): 60 µM

Oc1ccc(-c2n[nH]c(NCc3ccco3)c2-c2ccc(O)cc2)cc1
Kd (Mycocyclosin synthase [1]; read-out: Kd): 24 µM

Oc1ccc(CNc2[nH]nc(-c3ccc(O)cc3)c2-c2ccc(O)cc2)cc1
IC50 (Cytochrome P450 3A4): > 25 µM | IC50 (Cytochrome P450 2C9): > 25 µM | IC50 [4]: > 25 µM | Kd (Mycocyclosin synthase [1]; read-out: Kd): 6.3 µM | MIC90 [5]: ≥ 50 µM | IC50 (Cytochrome P450 2C19): > 25 µM | IC50 (Cytochrome P450 2D6): > 25 µM

Oc1ccc(-n2cncn2)cc1
Kd (Mycocyclosin synthase [1]; read-out: Kd): 1700 µM

Nc1cccc(-c2cccc(-c3c(-c4ccc(O)cc4)n[nH]c3N)c2)c1
IC50 (Cytochrome P450 3A4): 11.3 µM | selectivity ratio [3]: 1430 | IC50 (Cytochrome P450 2C9): > 25 µM | IC50 [4]: 21.4 µM | Kd (Mycocyclosin synthase [1]; read-out: Kd): 0.74 µM | MIC90 [5]: ≥ 50 µM | Kd (Mycocyclosin synthase [2]): 0.015 µM | Kd [6]: 18.4 µM | Kd [7]: 0.86 µM | IC50 (Cytochrome P450 2C19): > 25 µM | IC50 (Cytochrome P450 2D6): > 25 µM

Oc1ccc(-c2n[nH]c(NCc3cccc4[nH]ncc34)c2-c2ccc(O)cc2)cc1
Kd (Mycocyclosin synthase [1]; read-out: Kd): 45 µM

Nc1cccc(-c2cc(-c3c(-c4ccc(O)cc4)n[nH]c3N)ccc2O)c1
MIC90 [5]: ≥ 50 µM

Nc1cccc(Cn2cncn2)c1
Kd (Mycocyclosin synthase [1]; read-out: Kd): 1600 µM

NC(=O)c1cc(Cl)ccc1N
Kd (Mycocyclosin synthase [1]; read-out: Kd): 3400 µM

COc1ccc(-c2n[nH]c(N)c2-c2cccc(-c3cccc(N)c3)c2)cc1
Kd (Mycocyclosin synthase [1]; c41(de3)): ND(Insoluble) | MIC90 [5]: ≥ 50 µM | Kd (Mycocyclosin synthase [2]): 0.034 µM

Cc1ccc2cc(N)ccc2n1
Kd (Mycocyclosin synthase [1]; read-out: Kd): 400 µM

Oc1ccc(Nc2[nH]nc(-c3ccc(O)cc3)c2-c2ccc(O)cc2)cc1
Kd (Mycocyclosin synthase [1]; read-out: Kd): 15 µM

Nc1cc(-c2ccc(O)cc2)n[nH]1
Kd (Mycocyclosin synthase [1]; read-out: Kd): 1300 µM

Oc1ccc(-c2n[nH]c(NCc3ccc(O)c(Br)c3)c2-c2ccc(O)cc2)cc1
Kd (Mycocyclosin synthase [1]; read-out: Kd): 19 µM

Nc1[nH]nc(-c2ccc(O)cc2)c1-c1ccc(O)cc1
Kd (Mycocyclosin synthase [1]; read-out: Kd): 40 µM | MIC90 [5]: ≥ 50 µM

Nc1[nH]ncc1-c1ccc(O)cc1
Kd (Mycocyclosin synthase [1]; read-out: Kd): 1870 µM

O=C(Nc1[nH]nc(-c2ccc(O)cc2)c1-c1ccc(O)cc1)c1ccccc1
Kd (Mycocyclosin synthase [1]; read-out: Kd): 160 µM
